Data as given in BigSolDB 2.1.

NC(=O)c1ccncc1
solubility (mole fraction)
Settings	278.15 K	283.15 K	288.15 K	293.15 K	298.15 K	303.15 K	308.15 K	313.15 K	318.15 K	323.15 K
in DMAc	0.114	0.129	0.147	0.168	0.19	0.213	0.236	0.256	0.278	0.299
in DMF	0.13	0.135	0.147	0.157	0.17	0.181	0.193	0.208	0.221	0.24
in THF	0.0108	0.012	0.0143	0.0167	0.0194	0.0218	0.0247	0.0276	0.0308	0.0344
in acetone	0.00012	0.00014	0.00017	0.00021	0.00025	0.00029	0.00034	0.00039	0.00047	0.00057
in acetonitrile	0.00251	0.00313	0.00392	0.00473	0.00572	0.00695	0.00841	0.0102	0.0125	0.0152
in ethanol	0.0191	0.0221	0.0266	0.0307	0.0347	0.0407	0.0461	0.0548	0.0664	0.0796
in ethyl acetate	0.00272	0.00341	0.00414	0.00504	0.0062	0.00754	0.0105	0.0138	0.0172	0.0218
in isopropanol	0.0156	0.0182	0.0211	0.0253	0.0291	0.034	0.0381	0.0465	0.0559	0.0669
in isopropyl acetate	0.00204	0.00217	0.0025	0.00283	0.00328	0.00397	0.00505	0.00616	0.00734	0.00871
in methanol	0.0336	0.0392	0.0439	0.0515	0.0602	0.0678	0.0773	0.0911	0.103	0.122
in methyl acetate	0.00372	0.00431	0.00542	0.00668	0.00826	0.00969	0.0127	0.0152	0.0184	0.0218
in n-butanol	0.0172	0.0189	0.022	0.0248	0.0284	0.0319	0.0359	0.041	0.0482	0.0565
in n-pentanol	0.0126	0.0136	0.0152	0.0177	0.0204	0.0234	0.0279	0.033	0.039	0.046
in n-propanol	0.0218	0.0242	0.0275	0.0324	0.0374	0.0418	0.0455	0.0541	0.0639	0.0764
in n-propyl acetate	0.00198	0.00249	0.00323	0.00404	0.00494	0.00615	0.0072	0.00832	0.00937	0.0109
